The source of these data is patent publication US20240335397A1, “USE OF POLYAMINES IN THE TREATMENT OF BRAIN TUMOURS” (priority 2021, published 2024).

One data set deals with U87 cell line spheroid. Conditions: for Invasion from spheroid: 2 wt % HA gel pre-mixed with polyamine; for Binding to HA (rank among polyamines): inferred from spheroid invasion in 2 wt % HA gel. On the procedure: FIG. 3. Neutralisation of polyamine toxicity by matrix polyanions assayed in vitro. U87 cells were suspended at 5K cells per spheroid and then grown in medium in non-adherent plates for 7-10 days until seeded into 2% HA gel pre-mixed with a polyamine for 24 hours. (A) Representative microscopic images (multiplication 5×, field view: 1800 μm×2500 μm) were taken on day 2 after spheroid was seeded into the gel. (B) Area of invasion was determined by measurement of invasion distance from the centre of four independent spheroids in four directions on days 1, 2 and 3.
Strength of polyamine binding to polyanions (hyaluronic acid, GAGs) in (normal) brain ECM is a decisive factor which targets polyamine toxicity towards cancer cells rather than brain cells. When binding is strong, a polyamine will be neutralised before reaching cellular membrane which is surrounded by extracellular polyanions. When binding is weak, sufficient concentration of polyamine may kill the cell even though the cell is surrounded by polyanions. To test the binding strength of different polyamines, we developed a 3D neutralisation assay: the invasion from a neuroepithelial cancer spheroid (U87 cell line) was monitored in vitro in 2 wt % HA gel pre-mixed with different polyamines. Invasion from spheroid was indicative of cell survival and thus predictive of a strong binding of the polyamine to brain polyanions in vivo. A weak in vitro binding of a polyamine to HA manifested itself by the absence of invasion, i.e. cell poisoning, and thus was predictive of weak binding of the polyamine to brain polyanions in vivo.
In detail, polyamines were mixed with 2 wt % hyaluronic acid mixed with full MEM medium containing 10% foetal bovine serum to support cell growth to achieve the desired polyamine concentration and the resulting hyaluronic acid/polyamine gel plated in 24-well plates. One 3D tumour spheroid of U87 GBM cells was placed in each well. The invasion into the surrounding hyaluronic acid-rich matrix was imaged over several days and the invasion area measured by determining the maximum invasion distance in four orthogonal directions from the centre of the tumour spheroid and compared to controls with no polyamine in the hyaluronic acid matrix.

In another data set the test system is NCr nu/nu mouse brain. On the procedure: FIG. 5. Weight gain and survival of NCr nu/nu mice after a single polyamine injection into the brain. 6 animals per group were randomised on day 0, and on day 1 injected with 10 μL of 4 and 10 mM of the following three polyamines: putrescine, spermidine and cadaverine. Animal weight, survival and behaviour was monitored for 14 days.
To test polyamine safety in vivo and assess their effect on brain function, a single injection of 10 μL into NCr nu/nu mouse brain was selected as a model. A 10 μL volume in a mouse brain correlates well with a 3 cm diameter tumour in human brain, which is a typical size, for example, for initial glioblastoma diagnosis. The injected volume is thus similar to what might be needed to be injected into a human brain tumour. Three polyamines were selected for testing: putrescine, spermidine and cadaverine. Polyamines were tested in two concentrations: the lowest concentration, 4 mM, was expected to be safe based on in vitro assays and the highest concentration, 10 mM, to show some toxicity for cadaverine at least.

In data set [1] the test system is U87 cells. Description: Acute toxicity of polyamines to U87 cells in liquid medium (CellToxGreen fluorescence, bright field images). The class given is cell-based. Particulars: for EC50: Homo sapiens, U-87 MG, 1 h, U87 cells, liquid medium, 60 minutes incubation, CellToxGreen normalised to lysis buffer control, read-out: EC50 (cell death). Here is the method: FIG. 1. Comparative acute toxicity of selected linear polyamines towards cancer cell line of neuroepithelial origin. U87 cells were plated in 24-well plates and grown for about 3 days in liquid medium up to 50% confluency. Cell death was assayed via CellToxGreen (Promega) fluorescence after 60 minutes incubation with a polyamine and normalised to control in a lysis buffer.
We tested polyamine toxicity to U87 cells, an invasive cancer cell line of neuroepithelial origin, when they were plated and incubated in full MEM medium, containing 10% foetal bovine serum.

For data set [2], the system named is U87 cells. Description: 2D-scanning cell toxicity assay: polyamine injected into well of U87 cells under 3 wt % HA gel. The class given is cell-based. Particulars: for Level of protection by HA of distant cells (rank): FIG. 4. Here is the method:
FIG. 4. […] Adherent cells were grown in 24-well plates in 3% HA gel until achieved 40-50% confluency. Non-toxic fluorescent dye—CellToxGreen (Promega)—was premixed into the gel. 30 μL of polyamine ( 1/20 of total gel volume) was injected at 6 o'clock position of the well. CellToxGreen penetrated only into the dead cells with compromised membranes, bound to their DNA and emitted green fluorescence, i.e. increase in fluorescence intensity quantified cell death. Cells were monitored for 7 days using well scanning functions of a fluorescent reader FLUOstar (BMG Labtech, Germany). (A) Drawing of a well to show the point of injection of polyamine and the fate of cells near the injection point; and a representative image of a well assembled from 44 scanned patches. The higher the fluorescence intensity of a patch, the higher was the number of dead cells. (B) Ratio of dead cell fluorescence in two opposite areas of the well. Ratio=[fluorescence intensity in 22 patches adjacent to the injection point]/[fluorescence intensity in 22 patches opposing the injection point]. […] Multiplication 5×, field view: 2500 μm×1800 μm.
When brain cancers develop, it is within the polyanion (hyaluronic acid and GAG)-enriched environment of normal brain matrix, which in the tumour vicinity is degraded, diluted by oedema while the tumour itself synthesizes new specialized matrix with very different composition to normal brain (see Example 2). […] First, a cancer cell line of the neuroepithelial origin (U87) was plated, given a day for the cells to adhere to the well bottom and then covered by HA gel as a model of the polyanion-rich, normal brain ECM. Then, a polyamine was injected at the 6 o'clock position of each well (see FIG. 4). In the vicinity of the injection point, cells were expected to die, because the initial polyamine concentration was maximal in this region and the HA gel in this region was diluted by the carrier solvent (PBS). However, cells distant from the injection point were still surrounded by undiluted HA and the HA gel was expected to sequester the polyamine as it diffused through the HA gel, providing the polyamine binds strongly to HA and there is sufficient HA (i.e. the HA is not diluted) to bind sufficient polyamine to reduce the effective polyamine concentration to below the EC50 value. Thus, cells more distant from the injection point were expected to be protected from the polyamine, for as long as the polyamine remained strongly bound to the HA gel. Cell death was imaged over the well by scanning the well bottom for the fluorescence of a mortality dye, which binds DNA of cells with impaired membrane integrity.
In detail, U87 glioblastoma cells were grown in 24-well plates at with full MEM medium containing 10% foetal bovine serum until a layer of confluent cells covered the bottom of each well (FIG. 4). This liquid media was then removed leaving a layer of cells adhered to the bottom of each well. […] This hyaluronic acid plus protein gel represents a model of human brain extracellular matrix. CEIIToxGreen is a non-toxic molecule that can only enter dead cells, where it binds to DNA and emits green fluorescence. CEIIToxGreen thus allowed us to follow cell death over time in this assay by monitoring green fluorescence.
30 μL of different concentrations of polyamine was injected at the 6 o'clock position of each well and mapped the dead cell content in each well as a function of time. Specifically, each well was mapped as 44 congruent, contiguous tiles (FIG. 4A) and cell death in a tile was assayed as the net green fluorescence intensity from the tile.

Another data set has as its system recurrent GBM. Particulars: in combination with Lomustine, patients with recurrent GBM; cited from earlier work.

Broadly, the EC50 is the midpoint of the concentration-response curve.

Read-outs that look alike come from different tables or passages of the source.

As to `NCCCCCCNCCCCCCN` [BHMTA, bis(hexamethylene)triamine], the “Concentrations showing cytotoxic effects in hyaluronic acid-rich matrix” value (“Concentrations showing cytotoxic effects” below) in the data set on U87 cell line spheroid was greater than 4000 µM.
For the molecule `NCCCCCN` [cadaverine], in the data set on NCr nu/nu mouse brain (10 mM, 10 μL into brain), the “Animals died after 30 min of injection” value is 3 out of 6, the “Further animals died within 24 hours” value was 2 animals and the Survival entry is given as “Only one animal survived”. Besides, the “Weight loss of surviving animal” value in the data set on NCr nu/nu mouse brain (10 mM, day 3, then fully recovered) is recorded as 18%. The EC50 in the data set with U87 cells [1] stood at 6 mM. Also, in the data set on U87 cells [2] (10 mM), the “Protection of cells in HA gel distant from injection” value (from here on “Protection of cells”) was “not protected”. In addition, the “Level of protection by HA of distant cells (rank)” value with U87 cells [2] (3 wt % HA gel) is reported as “lowest”. Moreover, the “Concentrations showing cytotoxic effects” value in the data set on U87 cell line spheroid (human) was greater than 4000 µM.
On to `NCCCCN` [putrescine], for which, in the data set on NCr nu/nu mouse brain (either concentration (4 mM, 10 mM), 10 μL into brain), the “Acute toxicity in vivo” value is reported as “Neither putrescine nor spermidine demonstrated acute toxicity”. Further, the “Level of protection by HA of distant cells (rank)” value in the data set with U87 cells [2] (3 wt % HA gel) was “highest”. Further, in the data set on U87 cells [2] (both 4 mM and 10 mM), the “Protection of cells” value is given as “protected”. For the same molecule, the “Cytotoxicity in hyaluronic acid-rich matrix compared with media” value in the data set on U87 cell line spheroid is recorded as “almost completely abrogated”.
Turning to `NCCCCNCCCN` [spermidine], the EC50 in the data set on U87 cells [1] was in the range of 13 to 14 mM. Besides, in the data set on U87 cells [2] (4-12 mM, 3 wt % HA gel), the “Time cells on opposite side of well remained viable” value is listed as “at least 7 days”, the “Time in which cells close to injection site die” value fell in the range of 48 to 72 h and the “Toxicity for U87 cells close to injection site” value is listed as “highly toxic”. In the data set on U87 cells [2] (both 4 mM and 10 mM), the “Protection of cells” value is reported as “protected”. In the data set with U87 cell line spheroid (2 wt % HA gel), the “Cytotoxicity in hyaluronic acid-rich matrix compared with media” value is recorded as “almost completely abrogated”. In addition, in the data set with U87 cell line spheroid, the Invasion from spheroid result is reported as “invasion from spheroid was not affected” and the “Binding to HA (rank among polyamines)” value was “strongest binder”. Also, in the data set with U87 cell line spheroid (4-12 mM), the “Toxicity in 2 wt % hyaluronic acid” value was “non-toxic”.
Turning to `NCCCNCCCCNCCCN` [spermine], in the data set with U87 cells [1] (U87 cell suspensions, 10 mM and 20 mM, within 60 minutes), the “Mode of cell death in bright field images” value is “severe membrane disruption resulting in cell fragmentation”. Besides, in the data set on U87 cells [2] (10 mM, 3 wt % HA), the “Reduction of toxicity in hyaluronic acid-rich environment compared to same cell type in medium” value is 3 fold less toxic. In addition, in the data set with U87 cells [2] (4-6 mM, 3 wt % HA gel), the “Effect on cells a few millimetres away from injection point” value is on record as “benign” and the “Toxicity to cells close to injection point” value is given as “toxic”. Besides, in the data set on U87 cell line spheroid, the Invasion from spheroid result was “invasion was strongly suppressed” and the “Binding to HA (rank among polyamines)” value is “weakest binder”. In the data set with U87 cell line spheroid (human), the “Concentrations showing cytotoxic effects” value is greater than 4000 µM.
For the molecule “Bevacizumab: monoclonal antibody against vascular endothelial growth factor (VEGF)”, in the data set with recurrent GBM, the “Increase in median progression-free survival” value is listed as 0.23 months and the “Increase in overall survival” value is recorded as 1.4 months.
